From patent US8119645B2, “Fungicide hydroximoyl-tetrazole derivatives” (Bayer Cropscience AG, priority 2006, dated 2012) come the findings set out here.

This data set in a line: logP by reversed-phase HPLC (EEC Directive 79/831 Annex V.A8). The class given is physicochemical. To be noted: for LogP: HPLC C18, 40° C., 0.1% aqueous formic acid / acetonitrile gradient.

Experimental: Temperature: 40° C.; Mobile phases: 0.1% aqueous formic acid and acetonitrile; linear gradient from 10% acetonitrile to 90% acetonitrile.

As a reminder, the LogP is the decadic logarithm of the partition coefficient of the neutral form, usually between octanol and water. `Cc1nnnn1C(=NOCc1csc(NC(=O)NCCc2ccccc2)n1)c1ccc(Cl)s1` [Compound 104] yielded a log partition coefficient (LogP) of 3.64.

As to `Cc1ccc(C(=NOCc2csc(NC(=O)Cc3ccccc3)n2)n2nnnc2C)o1` [Compound 65], the log partition coefficient (LogP) is given as 2.92.

`Cc1nnnn1C(=NOCc1csc(NC(=O)Cc2ccccc2)n1)c1ccsc1` [Compound 32] displayed a LogP of 2.9.

As for `CCCCCCCCC(=O)Nc1nc(CON=C(c2cc(-c3ccccc3)c(Cl)s2)n2nnnc2C)cs1` [Compound 78], the log partition coefficient (LogP) was determined as 5.94.

In turn, `Cc1ccc(C(=NOCc2csc(NC(=O)Cc3ccccc3)n2)n2nnnc2C)s1` [Compound 116] came in with a LogP of 3.35.

In general, chromatographic logP refers to a lipophilicity value derived from retention on a column. A higher chromatographic logP goes with higher lipophilicity. In turn, `Cc1nnnn1/C(=N/OCc1csc(NC(=O)C(C)(C)C)n1)c1ccsc1` [Compound 18, O-(2-tert-Butylcarbonylamino-1,3-thiazol-4-yl)methyl-(thien-3-yl)-(5-methyltetrazol-1-yl)methanone oxime] showed a chromatographic logP of 2.94.

The compound `C=CCC(=O)Nc1nc(CON=C(c2ccc(Br)s2)n2nnnc2C)cs1` [Compound 97] registered a log partition coefficient (LogP) of 3.08.

As for `Cc1ccc(C(=NOCc2cccc(NC(=O)OCCc3ccccc3)n2)n2nnnc2C)o1` [Compound 75], the log partition coefficient (LogP) stood at 3.78.

Compound `CCCC(=O)Nc1nc(CON=C(c2ccc(-c3ccc(Cl)c(Cl)c3)o2)n2nnnc2C)cs1` [Compound 82] showed a log partition coefficient (LogP) of 4.11.

`Cc1nnnn1C(=NOCc1cccc(NC(=O)C(C)(C)C)n1)c1ccsc1Cl` [Compound 2] showed a LogP of 3.27.

With `CCc1nnnn1C(=NOCc1csc(NC(=O)C(C)(C)C)n1)c1ccsc1` [Compound 42], the LogP turned out to be 3.35.

In turn, `CCCCCC(=O)Nc1nc(CON=C(c2ccsc2)n2nnnc2C)cs1` [Compound 30] showed a log partition coefficient (LogP) of 3.25.

On to `Cc1nnnn1C(=NOCc1csc(N)n1)c1ccc(-c2ccccc2)o1` [Compound 131], for which the LogP was determined as 2.13.

Take `Cc1ccc(C(=NOCc2csc(N)n2)n2nnnc2C)s1` [Compound 113]: the LogP was found to be 1.8.

`Cc1nnnn1C(=NOCc1csc(NC(=O)CCCCl)n1)c1ccsc1` [Compound 34] gave a LogP of 2.67.

As for `Cc1nnnn1C(=NOCc1csc(NC(=O)Nc2ccccc2)n1)c1ccsc1` [Compound 21], the lipophilicity (LogP) turned out to be 2.88.

In turn, `CCCCCC(=O)Nc1cccc(CO/N=C(\c2csc(-c3ccccc3)n2)c2nnnn2C)n1` [Compound 178, O-(2-Pentylcarbonylaminopyridin-6-yl)methyl-(2-phenyl-1,3-thiazol-4-yl)-(1-methyitetrazol-5-yl)methanone oxime] returned a chromatographic logP of 4.06.

Take `Cc1ccc(C(=NOCc2csc(NC(=O)NCCc3ccccc3)n2)n2nnnc2C)s1` [Compound 118]: the LogP turned out to be 3.33.

For the compound `Cc1nnnn1C(=NOCc1csc(NC(=O)CCc2ccccc2)n1)c1ccc(Br)s1` [Compound 89], the LogP was 3.76.

The compound `CCc1nnnn1C(=NOCc1csc(NC(=O)C(C)C)n1)c1ccsc1` [Compound 43] returned a log partition coefficient (LogP) of 3.04.

`Cc1nnnn1C(=NOCc1cccc(N)n1)c1ccsc1Cl` [Compound 14] gave a LogP of 1.39.

As to `Cc1nnnn1C(=NOCc1csc(NC(=O)C2CCCC2)n1)c1ccsc1Cl` [Compound 7], the log partition coefficient (LogP) was 3.3.

As for `Cc1nnnn1C(=NOCc1csc(NC(=O)Cc2ccccc2)n1)c1ccsc1Cl` [Compound 10], the LogP turned out to be 3.21.

As for `CCCCCC(=O)Nc1cccc(CON=C(c2ccc(C)s2)n2nnnc2C)n1` [Compound 127], the lipophilicity (LogP) is listed as 3.79.

Consider `COCCOCC(=O)Nc1nc(CON=C(c2ccc(Cl)s2)n2nnnc2C)cs1` [Compound 111], for which the LogP worked out at 2.88.

In turn, `Cc1ccc(C(=NOCc2csc(NC(=O)CCCc3ccccc3)n2)n2nnnc2C)s1` [Compound 121] registered a LogP of 3.81.

The compound `Cc1ccc(C(=NOCc2csc(NC(=O)CCCc3ccccc3)n2)n2nnnc2C)o1` [Compound 60] came in with a log partition coefficient (LogP) of 3.4.

In the case of `CCCCCOC(=O)Nc1cccc(CON=C(c2ccsc2Cl)n2nnnc2C)n1` [Compound 16], the lipophilicity (LogP) is 4.19.

`CCCCCC(=O)Nc1cccc(CON=C(c2ccsc2)n2nnnc2C)n1` [Compound 36] returned a LogP of 3.39.

`CCCCCC(=O)Nc1nc(CON=C(c2ccc(-c3ccccc3)s2)n2nnnc2C)cs1` [Compound 57]: the LogP came to 4.58.

As to `Cc1ccc(C(=NOCc2cccc(N)n2)n2nnnc2C)o1` [Compound 72], the LogP amounted to 1.

Compound `COCCOCC(=O)Nc1nc(CON=C(c2ccsc2)n2nnnc2C)cs1` [Compound 48] gave a LogP of 2.28.

With `COCCOCC(=O)Nc1nc(CON=C(c2ccc(C)s2)n2nnnc2C)cs1` [Compound 129], the log partition coefficient (LogP) came out at 2.6.

Consider `Cc1ccc(C(=NOCc2csc(NC(=O)OCCc3ccccc3)n2)n2nnnc2C)s1` [Compound 123], for which the lipophilicity (LogP) came out at 3.88.

`Cc1nnnn1C(=NOCc1cccc(NC(=O)c2ccccc2)n1)c1ccsc1Cl` [Compound 1]: the LogP stood at 3.26.

For the compound `CCCCCCCCC(=O)Nc1nc(CON=C(c2ccsc2)n2nnnc2C)cs1` [Compound 41], the LogP came to 4.51.

In turn, `CCCC(=O)Nc1nc(CON=C(c2cc(-c3ccccc3)c(Cl)s2)n2nnnc2C)cs1` [Compound 79] yielded a LogP of 4.18.

As to `Cc1nnnn1C(=NOCc1csc(NC(=O)CCCCl)n1)c1ccc(-c2ccccc2)o1` [Compound 136], the log partition coefficient (LogP) worked out at 3.39.

`Cc1nnnn1C(=NOCc1csc(N)n1)c1ccc(Br)s1` [Compound 86] showed a LogP of 2.07.

In the case of `C=CCC(=O)Nc1nc(CON=C(c2ccc(C)o2)n2nnnc2C)cs1` [Compound 69], the LogP is 2.42.

On to `Cc1nnnn1C(=NOCc1csc(NC(=O)OCc2ccccc2)n1)c1ccsc1` [Compound 46], for which the log partition coefficient (LogP) is 3.24.

`Cc1nnnn1C(=NOCc1csc(NC(=O)C2CCCC2)n1)c1ccsc1` [Compound 39] came in with a LogP of 3.05. The LogP values of the last two compounds are within 0.2 log units of each other.

Compound `Cn1nnnc1/C(=N/OCc1cccc(N)n1)c1csc(-c2ccccc2)n1` [Compound 174, O-(2-Aminopyridin-6-yl)methyl-(2-phenyl-1,3-thiazol-4-yl)-(1-methyltetrazol-5-yl)methanone oxime] showed a chromatographic logP of 1.57.

Compound `Cc1ccc(C(=NOCc2csc(NC(=O)C(C)C)n2)n2nnnc2C)o1` [Compound 66] returned a LogP of 2.57.

For the compound `Cc1nnnn1C(=NOCc1csc(NC(=O)C2CCCC2)n1)c1ccc(Br)s1` [Compound 90], the LogP was 3.66.

Regarding `Cc1nnnn1C(=NOCc1csc(NC(=O)C2CC2)n1)c1ccc(Br)s1` [Compound 96], the lipophilicity (LogP) came out at 3.04.

The compound `Cc1nnnn1C(=NOCc1csc(NC(=O)C(C)C)n1)c1ccc(-c2ccccc2)o1` [Compound 134] showed a LogP of 3.27.

In the case of `Cc1nnnn1C(=NOCc1csc(NC(=O)Cc2ccccc2)n1)c1ccc(Br)s1` [Compound 93], the LogP came out at 3.53.

Compound `Cc1ccc(C(=NOCc2cccc(NC(=O)OCCc3ccccc3)n2)n2nnnc2C)s1` [Compound 125] returned a log partition coefficient (LogP) of 4.02.

In the case of `Cc1nnnn1C(=NOCc1csc(NC(=O)Cc2ccccc2)n1)c1ccc(Cl)s1` [Compound 103], the LogP is reported as 3.62.

For `Cc1nnnn1C(=NOCc1csc(NC(=O)C(C)C)n1)c1ccsc1` [Compound 31], the lipophilicity (LogP) amounted to 2.55.

As to `CCCCCNC(=O)Nc1nc(CON=C(c2ccsc2)n2nnnc2C)cs1` [Compound 22], the lipophilicity (LogP) is reported as 2.99.

As for `Cc1nnnn1C(=NOCc1csc(NC(=O)C(C)(C)C)n1)c1ccc(-c2ccccc2)s1` [Compound 53], the lipophilicity (LogP) was found to be 4.24.

`Cc1ccc(C(=NOCc2cccc(N)n2)n2nnnc2C)s1` [Compound 124] came in with a LogP of 1.51.

Compound `Cc1nnnn1/C(=N/OCc1csc(N)n1)c1ccsc1` [Compound 20, O-(2-Amino-1,3-thiazol-4-yl)methyl-(thien-3-yl)-(5-methyltetrazol-1-yl)methanone oxime] gave a chromatographic logP of 1.32.

Regarding `Cc1nnnn1C(=NOCc1csc(NC(=O)C(C)C)n1)c1ccc(Br)s1` [Compound 94], the LogP was determined as 3.22.

`CCCCCC(=O)Nc1cccc(CON=C(c2ccsc2Cl)n2nnnc2C)n1` [Compound 3]: the LogP came to 3.65.

In the case of `Cn1nnnc1C(=NOCc1cccc(NC(=O)C(C)(C)C)n1)c1csc(-c2ccccc2)n1` [Compound 176], the LogP was determined as 3.7.

`CCCCCOC(=O)Nc1cccc(CON=C(c2csc(-c3ccccc3)n2)c2nnnn2C)n1` [Compound 177] yielded a lipophilicity (LogP) of 4.56.

Turning to `Cc1nnnn1C(=NOCc1csc(NC(=O)CCCc2ccccc2)n1)c1ccc(Br)s1` [Compound 88], the lipophilicity (LogP) is 4.04.

As for `Cc1nnnn1C(=NOCc1csc(NC(=O)NC(C)C)n1)c1ccsc1` [Compound 26], the lipophilicity (LogP) was determined as 2.32.

`CCCCCC(=O)Nc1nc(CON=C(c2ccc(-c3ccccc3)o2)n2nnnc2C)cs1` [Compound 133] displayed a LogP of 3.8.

In turn, `Cc1nnnn1C(=NOCc1cccc(NC(=O)c2ccccc2)n1)c1ccsc1` [Compound 38] came in with a LogP of 3.01.

In turn, `Cc1ccc(C(=NOCc2csc(NC(=O)C3CC3)n2)n2nnnc2C)o1` [Compound 68] displayed a lipophilicity (LogP) of 2.41.

Consider `CCCCCC(=O)Nc1nc(CON=C(c2ccc(C)o2)n2nnnc2C)cs1` [Compound 64], for which the LogP is 3.26.

`Cc1ccc(C(=NOCc2csc(NC(=O)COCc3ccccc3)n2)n2nnnc2C)o1` [Compound 67] registered a LogP of 3.12.

In turn, `CCCCCC(=O)Nc1nc(CON=C(c2cc(-c3ccccc3)c(Cl)s2)n2nnnc2C)cs1` [Compound 80] came in with a log partition coefficient (LogP) of 4.88.

Compound `COCCOC(=O)Nc1nc(CON=C(c2ccc(C)s2)n2nnnc2C)cs1` [Compound 130] gave a LogP of 2.76.

Take `Cc1nnnn1C(=NOCc1csc(NC(=O)c2ccccc2)n1)c1ccsc1Cl` [Compound 4]: the LogP was determined as 3.26.

As for `Cn1nnnc1C(=NOCc1csc(NC(=O)Cc2ccccc2)n1)c1csc(-c2ccccc2)n1` [Compound 172], the LogP is 3.58.

`CCCCCC(=O)Nc1nc(CON=C(c2ccsc2Cl)n2nnnc2C)cs1` [Compound 13] returned a LogP of 3.59.

`COCCOC(=O)Nc1nc(CON=C(c2ccc(Br)s2)n2nnnc2C)cs1` [Compound 99] had a LogP of 3.1.
